Measured values taken from patent US5580865A, “2,2-disubstituted cephem sulphones” (Farmitalia Carlo Erba S.r.l., priority 1992, dated 1996).

Biological target: T1, human leukocyte elastase (HLE) (Homo sapiens, UniProt P08246)
T1 construct: purchased Calbiochem
T1 sequence (P08246 30-247 limits assumed): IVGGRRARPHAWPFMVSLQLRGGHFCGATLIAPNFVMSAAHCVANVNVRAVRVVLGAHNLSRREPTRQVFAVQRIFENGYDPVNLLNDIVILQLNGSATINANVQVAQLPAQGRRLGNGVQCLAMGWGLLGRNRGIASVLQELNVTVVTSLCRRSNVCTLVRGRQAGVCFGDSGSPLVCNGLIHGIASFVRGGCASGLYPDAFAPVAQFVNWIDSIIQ
Assay: Kinetic parameters of HLE inhibition (fluorogenic substrate, steady-state KI^ss and K5/KI)
Assay type: biochemical
Settings: HLE (Calbiochem), 37° C., pH 7.4 phosphate buffer, 1% DMSO, 1% MeCN; for kinact/KI: read-out: K5 /KI (rate of formation of the HLE-inhibitor complex); for Ki: read-out: KI^ss (apparent dissociation constant of the HLE-inhibitor complex at steady state)
Experimental: Kinetic parameters of HLE (Calbiochem) were determined at 37° C., 0.027M pH 7.4 phosphate buffer, 1% DMSO, 1% MeCN, NaCl (I=0.15), by monitoring the release of 7-amino-4-methylcoumarin (fluorescence detection) from N-methoxysuccinyl-alanyl-prolyl-valyl-7-amido-4-methylcoumarin as the substrate, according to the equations: [formula] wherein [P], [I], [S]=product, inhibitor, and substrate concentration
Km =Michaelis constant for the enzyme substrate pair (independently determined under the same experimental conditions)

Row | kinact/KI | Ki | SMILES
1 | 600000 M⁻¹ s⁻¹ | 1 nM | CO[C@H]1C(=O)N2C(C(=O)C(C)(C)C)=C(C)C(Cc3ccc([N+](=O)[O-])cc3)(Sc3nnnn3C)S(=O)(=O)[C@H]12 (stereo partly drawn) [Compound 6, 4-tert-Butylcarbonyl-7α-methoxy-3-methyl-2-(1-methyl-1,2,3,4-tetrazol-5-yl)thio-2-(4-nitrobenzyl)-3-cephem 1,1-dioxide]
2 | 360000 M⁻¹ s⁻¹ | 3 nM | C=CCC1(Sc2nnnn2C)C(C)=C(C(=O)C(C)(C)C)N2C(=O)[C@H](OC)[C@H]2S1(=O)=O (stereo partly drawn) [Compound 7, 2-Allyl-4-tert-butylcarbonyl-7α-methoxy-3-methyl-2-(1-methyl-1,2,3,4-tetrazol-5-yl)thio-3-cephem 1,1-dioxide]
3 | 1.4e+06 M⁻¹ s⁻¹ | – | COc1nn(C)c(SC2(C)C(C)=C(C(=O)C(C)(C)C)N3C(=O)[C@H](OC)[C@H]3S2(=O)=O)nc1=O (stereo partly drawn) [Compound 15, 2-(2,5-Dihydro-6-methoxy-2-methyl-5-oxo-1,2,4-triazin-3-yl)thio-4-tert-butylcarbonyl-2,3-dimethyl-7α-methoxy-3-cephem 1,1-dioxide]
4 | 110000 M⁻¹ s⁻¹ | 4 nM | CO[C@H]1C(=O)N2C(C(=O)C(C)(C)C)=C(C)C(Cc3ccccc3)(Sc3nnnn3C)S(=O)(=O)[C@H]12 (stereo partly drawn) [Compound 10, 2-Benzyl-4-tert-butylcarbonyl-7α-methoxy-3-methyl-2-(1-methyl-1,2,3,4-tetrazol-5-yl)thio-3-cephem 1,1-dioxide]
5 | 14000 M⁻¹ s⁻¹ | 16 nM | CO[C@H]1C(=O)N2C(C(=O)C(C)(C)C)=C(C)C(Cc3ccccc3)(Sc3nc(=O)c(O)nn3C)S(=O)(=O)[C@H]12 (stereo partly drawn) [Compound 18, 2-Benzyl-2-(2,5-dihydro-6-hydroxy-2-methyl-5-oxo-1,2,4-triazin-3-yl)thio-4-tert-butylcarbonyl-7α-methoxy-3-methyl-3-cephem 1,1-dioxide]
6 | 570000 M⁻¹ s⁻¹ | 1.9 nM | CO[C@H]1C(=O)N2C(C(=O)C(C)(C)C)=C(C)C(C)(Sc3nnnn3C)S(=O)(=O)[C@H]12 (stereo partly drawn) [Compound 5, 4-tert-Butylcarbonyl-2,3-dimethyl-7α-methoxy-2-(1-methyl-1,2,3,4-tetrazol-5-yl)thio-3-cephem 1,1-dioxide]
7 | 93000 M⁻¹ s⁻¹ | 8 nM | C=CCC1(Sc2nc(=O)c(OC(c3ccccc3)c3ccccc3)nn2C)C(C)=C(C(=O)C(C)(C)C)N2C(=O)[C@H](OC)[C@H]2S1(=O)=O (stereo partly drawn) [Compound 24, 2-allyl-2-(6-benzhydryloxy-2,5-dihydro-2-methyl-5-oxo-1,2,4-triazin-3-yl)thio-4-tert-butylcarbonyl-7α-methoxy-3-methyl-3-cephem 1,1-dioxide]
8 | 560000 M⁻¹ s⁻¹ | 1.3 nM | C=CCOC(=O)c1ccc(CC2(Sc3nnnn3C)C(C)=C(C(=O)C(C)(C)C)N3C(=O)[C@H](OC)[C@H]3S2(=O)=O)cc1 (stereo partly drawn) [Compound 31, 2-(4-allyloxycarbonylbenzyl)-4-tert-butylcarbonyl-7α-methoxy-3-methyl-2-(1-methyl-1,2,3,4-tetrazol-5-yl)thio-3-cephem 1,1-dioxide]
9 | – | 93 nM | CO[C@H]1C(=O)N2C(C(=O)C(C)(C)C)=C(CSc3nnnn3C)C(Sc3nnnn3C)S(=O)(=O)C12 (some centres unmarked) [Ref. 2, reference compound]
10 | 1.3e+07 M⁻¹ s⁻¹ | < 1 nM | CO[C@H]1C(=O)N2C(C(=O)C(C)(C)C)=C(C)C(C)(Sc3nc(=O)c(OC(c4ccccc4)c4ccccc4)nn3C)S(=O)(=O)[C@H]12 (stereo partly drawn) [Compound 11, 2-(6-Benzhydryloxy-2-methyl-5-oxo-2,5-dihydro-1,2,4-triazin-3-yl)thio-4-tert-butylcarbonyl-2,3-dimethyl-7α-methoxy-3-cephem 1,1-dioxide]
11 | 1.4e+06 M⁻¹ s⁻¹ | 3 nM | CO[C@H]1C(=O)N2C(C(=O)C(C)(C)C)=C(CSc3nnnn3C)C(C)(Sc3nnnn3C)S(=O)(=O)[C@H]12 (stereo partly drawn) [Compound 28, 4-tert-Butylcarbonyl-7α-methoxy-2-methyl-2-(1-methyl-1,2,3,4-tetrazol-5-yl)thio-3-(1-methyl-1,2,3,4-tetrazol-5-yl)thiomethyl-3-cephem 1,1-dioxide]
12 | 37000 M⁻¹ s⁻¹ | 30 nM | CO[C@H]1C(=O)N2C(C(=O)C(C)(C)C)=C(C)C(C)(Sc3nc(=O)c(O)nn3C)S(=O)(=O)[C@H]12 (stereo partly drawn) [Compound 12, 2-(2,5-Dihydro-6-hydroxy-2-methyl-5-oxo-1,2,4-triazin-3-yl)thio-4-tert-butylcarbonyl-2,3-dimethyl-7α-methoxy-3-cephem 1,1-dioxide]
13 | 77000 M⁻¹ s⁻¹ | 1 nM | CO[C@H]1C(=O)N2C(C(=O)C(C)(C)C)=C(C)C(Cc3ccc(C(=O)OC(c4ccccc4)c4ccccc4)cc3)(Sc3nnnn3C)S(=O)(=O)[C@H]12 (stereo partly drawn) [Compound 30, 2-(4-benzhydryloxycarbonylbenzyl)-4-tert-Butylcarbonyl-7α-methoxy-3-methyl-2-(1-methyl-1,2,3,4-tetrazol-5-yl)thio-3-cephem1,1-dioxide]
14 | 1500 M⁻¹ s⁻¹ | – | CO[C@H]1C(=O)N2C(C(=O)N3CCCC3)=C(CSc3nc(=O)c(O)nn3C)CS(=O)(=O)[C@H]12 [Ref. 3, reference compound]
15 | 200000 M⁻¹ s⁻¹ | 7 nM | CO[C@H]1C(=O)N2C(C(=O)C(C)(C)C)=C(C)C(Cc3ccc(C(=O)O)cc3)(Sc3nnnn3C)S(=O)(=O)[C@H]12 (stereo partly drawn) [Compound 32, 4-tert-Butylcarbonyl-2-(4-carboxybenzyl)-7α-methoxy-3-methyl-2-(1-methyl-1,2,3,4-tetrazol-5-yl)thio-3-cephem 1,1-dioxide]
16 | 160000 M⁻¹ s⁻¹ | 4 nM | CO[C@H]1C(=O)N2C(C(=O)C(C)(C)C)=C(C)C(Cc3ccccc3)(Sc3nc(=O)c(OCc4ccccc4)nn3C)S(=O)(=O)[C@H]12 (stereo partly drawn) [Compound 46, 2-Benzyl-2-(6-benzyloxy-2,5-dihydro-2-methyl-5-oxo-1,2,4-triazin-3-yl)thio-4-tert-butylcarbonyl-7α-methoxy-3-methyl-3-cephem 1,1-dioxide]
